Where two headings read alike, the source gives them in different places.
Assay: PK study following IV and PO administration in male CD1 mice
Type: in vivo, mouse
Set-up: AUClast/D: unit: (ng*h/mL)/(mg/kg)
Conditions: for AUClast/D / CIobs / AUC(0-inf) / AUC(0-t) / C0 / half-life / MRT inf / Vd / Cmax / Tmax: plasma, mean of three mice; for CIobs: unit assumed; for F: PO 50 mg/kg versus IV 10 mg/kg; for AUC(0-inf) / AUC(0-t) / C0 / half-life / MRT inf / Vd / Cmax / Tmax: mouse; for MRT inf: read-out: MRTInf—obs; for Vd: read-out: Vss—obs
Procedure: The objective of this study was to determine the pharmacokinetic (PK) profile of LOX enzyme inhibiting compounds following IV and PO administrations in male CD1 mice.
Male CDT mice from a qualified provider were used for all studies. Mice were 6-8 weeks old at the time of the experiment (˜20-30 g body weight). All animals for IV & PO administration were fasted overnight and fed after 4 hours collection. The dose formulation was kept at room temperature no more than 2 hours.
Dose formulations were prepared fresh on the day of dosing and stored at ambient temperature. Dose formulations were as following: […]
Blood samples were collected from the dorsal metatarsal vein. Circa 0.03 mL were collected per time point and 0.3 mL at final time point via heart puncture. The blood samples were centrifuged at 4000 g for 5 minutes at 4° C. to obtain plasma and samples were immediately frozen in the upright position and stored at −75±15° C. prior to analysis.
Blood samples were collected at time points outlined in Table 12:
Acceptable time ranges for blood collection were as following: 5 min and 15 min: within +0.25 minute, 30 min, 1 hour, and 2 hours: within +2 minutes; 4 hours, 6 hours, 8 hours, and 24 hours: within +10 minutes.
Concentrations of LOX enzyme inhibiting compounds in the plasma were analyzed using a LC-MS/MS method. WinNonlin (Phoenix™, version 8.2) software was used for pharmacokinetic calculations. The following pharmacokinetic parameters were calculated, whenever possible from the plasma concentration versus time data:
IV administration: T1/2, C0, AUClast, AUCinf, MRTinf, Cl, Vss, Number of Points for Regression.
PO administration: T1/2, Cmax, Tmax, AUClast, AUCinf and F. Number of Points for Regression.
The pharmacokinetic data were described using descriptive statistics such as mean, standard deviation.
Results are outlined in Table 13 (IV), Table 14 (PO) and FIGS. 1-3. Data represent mean values from three mice.

| AUClast/D (IV, 10 mg/kg) | CIobs (IV, 10 mg/kg) [mL/min/kg] | F | AUClast/D (PO, 50 mg/kg) | AUC(0-inf) (IV, 10 mg/kg) [ng·h/mL] | AUC(0-t) (IV, 10 mg/kg) [ng·h/mL] | C0 (IV, 10 mg/kg) [ng/mL] | half-life (IV, 10 mg/kg) [min] | MRT inf (IV, 10 mg/kg) [min] | Vd (IV, 10 mg/kg) [L/kg] | AUC(0-inf) (PO, 50 mg/kg) [ng·h/mL] | AUC(0-t) (PO, 50 mg/kg) [ng·h/mL] | Cmax (PO, 50 mg/kg) [ng/mL] | Tmax (PO, 50 mg/kg) [min] | half-life (PO, 50 mg/kg) [min] | MRT inf (PO, 50 mg/kg) [min] | Compound |
| --- | --- | --- | --- | --- | --- | --- | --- | --- | --- | --- | --- | --- | --- | --- | --- | --- |
| 196 | 85.5 | 90 | 138 | 1970 | 1960 | 3590 | 53.4 | 41.5 | 3.55 | 8860 | 8850 | 5550 | 25 | 49.3 | 74.4 | CN(C)C(=O)N1C[C@@H](c2ccccc2)C[C@@H](S(=O)(=O)c2cccc(CN)c2)C1.O=C(O)C(F)(F)F (racemic) [Example 74, cis-3-((3-(Aminomethyl)phenyl)sulfonyl)-N,N-dimethyl-5-phenylpiperidine-1-carboxamide 2,2,2-trifluoroacetate] |
| 164 | 103 | 7.2 | 11.3 | 1650 | 1640 | 6150 | 287 | 51 | 5.12 | 590 | 563 | 503 | 15 | 337 | 221 | NCc1ccnc(S(=O)(=O)N2C[C@@H](C(=O)N3CCS(=O)(=O)CC3)C[C@@H](C3CCCCC3)C2)c1.O=C(O)C(F)(F)F (racemic) [Example 146, cis-(1-((4-(Aminomethyl)pyridin-2-yl)sulfonyl)-5-cyclohexylpiperidin-3-yl)(1,1-dioxidothiomorpholino)methanone 2,2,2-trifluoroacetate] |

Source: patent US20230310445A1, “LOX ENZYME INHIBITING METHODS AND COMPOSITIONS” (ANOVIA BIOSCIENCES, INC., priority 2020, published 2023)
